Results on 40 compounds are retold here after ChEMBL document CHEMBL1148380, “Quantitative structure-activity relationships for gammadelta T cell activation by bisphosphonates” (J Med Chem, 2004).

Holding throughout (format): functional, cell-based
Common to all, as to conditions: Homo sapiens, T-cell

Assay [1] in a line: pIC50 value for stimulation of TNF-alpha release in gamma-delta T cells, using a constrained maximum TNF-alpha release of 2700 pg/mL.
Assay [2] is described as follows: Inhibitory activity, for stimulation of TNF-alpha release in gamma-delta T cells, using individual observed maximum TNF-alpha release.
The nature of assay [3]: pIC50 value for stimulation of TNF-alpha release in gamma-delta T cells, using individual observed maximum TNF-alpha release.
Assay [4] in a line: Inhibitory activity, for stimulation of TNF-alpha release in gamma-delta T cells, using a constrained maximum TNF-alpha release of 2700 pg/mL.

The term IC50 denotes the concentration needed to halve the response being measured. Low values mean greater potency, high ones weaker potency. On to `CCN(CC)C(P(=O)(O)O)P(=O)(O)O` [(DIETHYLAMINO)METHYLENEDIPHOSPHONIC ACID], for which the half-inhibitory concentration (IC50) in assay [1] is 2880 µM; in assay [2], 132 µM; in assay [3], 132 µM; in assay [4], 2910 µM.

Turning to `O=P(O)(O)C(O)(Cn1ccnn1)P(=O)(O)O`, the values for the half-maximal inhibitory concentration (IC50) in assay [1] and in assay [4] were 2090 µM and 2070 µM, respectively.

`CC1CCCCN1C(P(=O)(O)O)P(=O)(O)O` (stereo unspecified): the figures for the 50% inhibitory concentration (IC50) in assay [1] and in assay [4] were 2750 µM and 2740 µM, respectively.

`CC(C)(C)c1cccc(NC(P(=O)(O)O)P(=O)(O)O)c1`: the half-inhibitory concentration (IC50) is 25100 µM in assay [1] and 25200 µM in assay [4].

`Nc1ccc(CC(O)(P(=O)(O)O)P(=O)(O)O)cc1`: the IC50 in assay [1] was 20000 µM; in assay [2], 251 µM; in assay [3], 251 µM; in assay [4], 19900 µM.

Take `CCCNC(P(=O)(O)O)P(=O)(O)O` [(PROPYLAMINO)METHYLENEDIPHOSPHONIC ACID]: the IC50 in assay [1] was 34.7 µM; in assay [2], 18 µM; in assay [3] it was 18.2 µM; in assay [4] it was 35 µM.

Regarding `NCCC(O)(P(=O)(O)O)P(=O)(O)O` [PAMIDRONIC ACID], the IC50 in assay [1] is 933 µM; in assay [2], 62 µM; in assay [3], 61.7 µM; in assay [4] it was 941 µM.

As to `NCCCCC(O)(P(=O)(O)O)P(=O)(O)O`, the IC50 is 214 µM in assay [1], 102 µM in assay [2], 102 µM in assay [3] and 213 µM in assay [4].

For the compound `Cc1ccnc(NC(P(=O)(O)O)P(=O)(O)O)c1`, the half-inhibitory concentration (IC50) in assay [1] is 14.5 µM; in assay [2] it was 13 µM; in assay [3], 12.6 µM; in assay [4] it was 14 µM.

Regarding `O=P(O)(O)C(Nc1ccccn1)P(=O)(O)O`, the half-inhibitory concentration (IC50) in assay [1] is 15.5 µM; in assay [2] it was 7.4 µM; in assay [3], 7.41 µM; in assay [4] it was 16 µM.

Turning to `CN(C)CCCC(P(=O)(O)O)P(=O)(O)O`, the 50% inhibitory concentration (IC50) is 398 µM in assay [1] and 400 µM in assay [4].

Consider `O=[N+]([O-])c1cccc(CC(O)(P(=O)(O)O)P(=O)(O)O)c1`, for which the half-inhibitory concentration (IC50) in assay [1] and in assay [4] was 110 µM throughout.

Consider `Cc1cccc(NC(P(=O)(O)O)P(=O)(O)O)n1`, for which the IC50 in assay [1] was 28.2 µM; in assay [2] it was 12 µM; in assay [3], 12 µM; in assay [4] it was 28 µM.

Regarding `O=P(O)(O)C(N1CCCCC1)P(=O)(O)O`, the concentration for half-maximal inhibition (IC50) in assay [1] was 120 µM; in assay [2] it was 66 µM; in assay [3] it was 66.1 µM; in assay [4], 122 µM.

For `CCN(C1CCCCC1)C(P(=O)(O)O)P(=O)(O)O`, the figures for the IC50 in assay [1] and in assay [4] were 102 µM and 103 µM, respectively.

As for `CCC1CCCCN1C(P(=O)(O)O)P(=O)(O)O` (stereo unspecified), the IC50 in assay [1] and in assay [4] was 1200 µM each time.

Regarding `O=P(O)(O)C(NC1CCCCCC1)P(=O)(O)O` [INCADRONIC ACID], the IC50 is 14.8 µM in assay [1], 11 µM in assay [2], 11.5 µM in assay [3] and 15 µM in assay [4].

With `CC1CCCC(C)N1C(P(=O)(O)O)P(=O)(O)O` (stereo unspecified), the results for the IC50 in assay [1] and in assay [4] were 1660 µM and 1650 µM, respectively.

In the case of `O=P(O)(O)C(N1CCSCC1)P(=O)(O)O` [THIOMORPHOLINOMETHYLENEDIPHOSPHONIC ACID], the 50% inhibitory concentration (IC50) in assay [1] was 603 µM; in assay [2], 190 µM; in assay [3], 191 µM; in assay [4], 597 µM.

Take `Cc1cccnc1NC(P(=O)(O)O)P(=O)(O)O`: the IC50 in assay [1] was 4.9 µM; in assay [2], 4.3 µM; in assay [3] it was 4.37 µM; in assay [4], 4.9 µM.

With `CC1CCCN(C(P(=O)(O)O)P(=O)(O)O)C1` (stereo unspecified), the IC50 in assay [1] was 347 µM; in assay [4], 348 µM.

Turning to `O=P(O)(O)C(Sc1ccccn1)P(=O)(O)O`, the half-maximal inhibitory concentration (IC50) in assay [1] is 67.6 µM; in assay [4] it was 67 µM.

`O=P(O)(O)C(NC1CCCC1)P(=O)(O)O` [(CYCLOPENTYLAMINO)METHYLENEDIPHOSPHONIC ACID]: the half-inhibitory concentration (IC50) in assay [1] was 55 µM; in assay [2], 25 µM; in assay [3] it was 25.1 µM; in assay [4], 55 µM.

Regarding `O=P(O)(O)C(NC1CCC1)P(=O)(O)O` [(CYCLOBUTYLAMINO)METHYLENEDIPHOSPHONIC ACID], the IC50 in assay [1] was 126 µM; in assay [2] it was 56 µM; in assay [3], 56.2 µM; in assay [4], 127 µM.

Consider `CC(N)CC(O)(P(=O)(O)O)P(=O)(O)O` (stereo unspecified), for which the IC50 was 110 µM in assay [1], 63 µM in assay [2], 63.1 µM in assay [3] and 110 µM in assay [4].

Regarding `O=P(O)(O)C(NC1CCCCCCC1)P(=O)(O)O` [(CYCLOOCTYLAMINO)METHYLENEDIPHOSPHONIC ACID], the IC50 in assay [1] is 110 µM; in assay [2] it was 44 µM; in assay [3], 43.7 µM; in assay [4], 110 µM.

Regarding `O=P(O)(O)C(O)(CCNCCCOc1ccccc1)P(=O)(O)O`, the IC50 in assay [1] was 141 µM; in assay [2], 98 µM; in assay [3], 97.7 µM; in assay [4], 143 µM.

In the case of `O=P(O)(O)C(Nc1cccnc1)P(=O)(O)O`, the concentration for half-maximal inhibition (IC50) was 24 µM in assay [1], 14 µM in assay [2], 14.5 µM in assay [3] and 24 µM in assay [4].

Regarding `O=P(O)(O)C(O)(Cc1ccccn1)P(=O)(O)O`, the IC50 in assay [1] is 5.62 µM; in assay [2] it was 5.7 µM; in assay [3] it was 5.75 µM; in assay [4], 5.6 µM.

Regarding `CCCN(CCC)C(P(=O)(O)O)P(=O)(O)O` [(DIPROPYLAMINO)METHYLENEDIPHOSPHONIC ACID], the IC50 in assay [1] was 83.2 µM; in assay [2], 41 µM; in assay [3], 40.7 µM; in assay [4], 83 µM.

Take `Cc1cccc(CC(O)(P(=O)(O)O)P(=O)(O)O)c1`: the IC50 is 8910 µM in assay [1] and 9020 µM in assay [4].

With `CCCCCCC(O)(P(=O)(O)O)P(=O)(O)O`, the IC50 in assay [1] was 2090 µM; in assay [2], 213 µM; in assay [3], 214 µM; in assay [4] it was 2110 µM.

With `CCCCCNC(P(=O)(O)O)P(=O)(O)O` [(PENTYLAMINO)METHYLENEDIPHOSPHONIC ACID], the concentration for half-maximal inhibition (IC50) in assay [1] is 40.7 µM; in assay [2], 7.8 µM; in assay [3] it was 7.76 µM; in assay [4], 41 µM.

`O=P(O)(O)C(N1CCCCCCC1)P(=O)(O)O` [N-(HEPTAMETHYLENEIMINO)METHYLENEBISPHOSPHONIC ACID]: the IC50 in assay [1] is 67.6 µM; in assay [4], 68 µM.

On to `CCCCNC(P(=O)(O)O)P(=O)(O)O` [(BUTYLAMINO)METHYLENEDIPHOSPHONIC ACID], for which the IC50 in assay [1] was 12.9 µM; in assay [2], 10 µM; in assay [3] it was 10.2 µM; in assay [4] it was 13 µM.

As for `O=P(O)(O)C(NCc1ccc(F)cc1)P(=O)(O)O`, the figures for the IC50 in assay [1] and in assay [4] were 63.1 µM and 63 µM, respectively.

As to `Cc1cc(Br)cnc1NC(P(=O)(O)O)P(=O)(O)O`, the figures for the IC50 in assay [1] and in assay [4] were 72.4 µM and 72 µM, respectively.

`O=P(O)(O)C(Cc1cccnc1)P(=O)(O)O`: the values for the half-maximal inhibitory concentration (IC50) in assay [1] and in assay [4] were 10.5 µM and 10 µM, respectively.

Regarding `O=P(O)(O)C(O)(C[n+]1cc[nH]c1)P(=O)(O)O`, the IC50 in assay [2] was 5.2 µM; in assay [3], 5.25 µM.

For the compound `CC1CCN(C(P(=O)(O)O)P(=O)(O)O)CC1`, the IC50 is 23.4 µM in assay [1] and 24 µM in assay [4].
